# Laboratory results published in US7538112B2, “HIV integrase inhibitors” (Merck & Co., Inc., priority 2004, dated 2009).
# System: viruses containing mutations in the integrase gene (T66I/S153Y, N155S, and F121Y)
# Assay: Sensitivity of viruses containing integrase mutations associated with resistance to other integrase inhibitors
# Assay type: cell-based, HIV
# From the text: In preclinical laboratory experiments, it has been possible to select viruses resistant to integrase inhibitors in structural classes other than those embraced by the present invention, such as diketo acids, naphthyridine carboxamides, and dihydropyrimidine carboxamides. Mutations in the integrase gene that confer resistance (defined herein as greater than or equal to a 10-fold loss of sensitivity) to such compounds include T66I/S153Y, N155S, and F121Y. Certain compounds of the present invention have less than a 10-fold loss in sensitivity against viruses containing these and other mutations associated with resistance to other integrase inhibitors, and thus can be effective inhibitors of such viruses. Compounds of the present invention which are effective against such viruses include, for example, the compounds of Examples 37, 50, 56, 62, 69, 86, 87, 88, 151, 153, 159-A, 159-B, 166, 189, 193, and 205.
row,SMILES,effective against viruses with integrase resistance mutations
1,"CCN1CC(CO)n2c(c(O)c3c(=O)n(Cc4ccc(F)cc4)nc(C)c32)C1=O (racemic) [Example 56, 8-Ethyl-2-(4-fluorobenzyl)-10-hydroxy-4-methyl-6-(hydroxymethyl)-7,8-dihydropyrazino[1′,2′:1,5]pyrrolo[2,3-d]pyridazine-1,9(2H,6H)-dione]",effective
2,"CCN1CC(C)n2c(c(O)c3c(=O)n(Cc4ccc(F)c(Cl)c4)nc(N(CC)S(C)(=O)=O)c32)C1=O (racemic) [Example 159-B, N-[2-(3-Chloro-4-fluorobenzyl)-10-hydroxy-8-ethyl-6-methyl-1,9-dioxo-1,2,6,7,8,9-hexahydropyrazino[1′,2′:1,5]pyrrolo[2,3-d]pyridazin-4-yl]-N-ethylmethanesulfonamide]",effective
3,"Cc1nn(Cc2ccc(F)cc2)c(=O)c2c(O)c3n(c12)C(C)CN(C)C3=O (stereo not shown) [Example 37, 2-(4-Fluorobenzyl)-10-hydroxy-4,6,8-trimethyl-7,8-dihydropyrazino[1′,2′:1,5]-pyrrolo[2,3-d]pyridazine-1,9(2H,6H)-dione]",effective
4,"Cc1nn(Cc2ccc(F)cc2)c(=O)c2c(O)c3n(c12)[C@@H](C)CN(C(C)C)C3=O [Example 50, 6(S)-2-(4-Fluorobenzyl)-10-hydroxy-8-isopropyl-4,6-dimethyl-7,8-dihydropyrazino[1′,2′:1,5]pyrrolo[2,3-d]pyridazine-1,9(2H,6H)-dione]",effective
5,"CCN1C[C@H](C)n2c(c(O)c3c(=O)n(Cc4ccc(F)c(Cl)c4)nc(C(=O)NC)c32)C1=O [Example 62, 6(S)-2-(3-Chloro-4-fluorobenzyl)-8-ethyl-10-hydroxy-N,6-dimethyl-1,9-dioxo-1,2,6,7,8,9-hexahydropyrazino[1′,2′:1,5]pyrrolo[2,3-d]pyridazine-4-carboxamide]",effective
6,"CCNC(=O)c1nn(Cc2ccc(F)c(Cl)c2)c(=O)c2c(O)c3n(c12)CCN(C)C3=O [Example 69, 2-(3-Chloro-4-fluorobenzyl)-N-ethyl-10-hydroxy-8-methyl-1,9-dioxo-1,2,6,7,8,9-hexahydropyrazino[1′,2′:1,5]pyrrolo[2,3-d]pyridazine-4-carboxamide]",effective
7,"CCNC(=O)c1nn(Cc2ccc(F)c(Cl)c2)c(=O)c2c(O)c3n(c12)[C@@H](C)CN(C(C)C)C3=O [Example 86, 6(S)-2-(3-Chloro-4-fluorobenzyl)-10-hydroxy-8-isopropyl-N-ethyl-6-methyl-1,9-dioxo-1,2,6,7,8,9-hexahydropyrazino[1′,2′:1,5]pyrrolo[2,3-d]pyridazine-4-carboxamide]",effective
8,"CCNC(=O)c1nn(Cc2ccc(F)cc2)c(=O)c2c(O)c3n(c12)[C@@H](C)CN(C(C)C)C3=O [Example 87, 6(S)-2-(4-Fluorobenzyl)-10-hydroxy-8-isopropyl-N-ethyl-6-methyl-1,9-dioxo-1,2,6,7,8,9-hexahydropyrazino[1′,2′:1,5]pyrrolo[2,3-d]pyridazine-4-carboxamide]",effective
9,"CC(C)N1C[C@H](C)n2c(c(O)c3c(=O)n(Cc4ccc(F)c(Cl)c4)nc(C(=O)N(C)C)c32)C1=O [Example 88, 6(S)-2-(3-Chloro-4-fluorobenzyl)-10-hydroxy-8-isopropyl-N,N,6-trimethyl-1,9-dioxo-1,2,6,7,8,9-hexahydropyrazino[1′,2′:1,5]pyrrolo[2,3-d]pyridazine-4-carboxamide]",effective
10,"CCN1C[C@H](C)n2c(c(O)c3c(=O)n(Cc4ccc(F)c(Cl)c4)nc(N(C)S(C)(=O)=O)c32)C1=O [Example 151, N-[(6S)-2-(3-Chloro-4-fluorobenzyl)-10-hydroxy-8-ethyl-6-methyl-1,9-dioxo-1,2,6,7,8,9-hexahydropyrazino[1′,2′:1,5]pyrrolo[2,3-d]pyridazin-4-yl]-N-methylmethanesulfonamide]",effective
11,"CC(C)N1C[C@H](C)n2c(c(O)c3c(=O)n(Cc4ccc(F)c(Cl)c4)nc(N(C)S(C)(=O)=O)c32)C1=O [Example 153, N-[(6S)-2-(3-Chloro-4-fluorobenzyl)-10-hydroxy-8-isopropyl-6-methyl-1,9-dioxo-1,2,6,7,8,9-hexahydropyrazino[1′,2′:1,5]pyrrolo[2,3-d]pyridazin-4-yl]-N-methylmethanesulfonamide]",effective
12,"CC(C)N1C[C@H](C)n2c(c(O)c3c(=O)n(Cc4ccc(F)cc4)nc(N(C)S(C)(=O)=O)c32)C1=O [Example 159-A, N-[(6S)-2-(4-Fluorobenzyl)-10-hydroxy-8-isopropyl-6-methyl-1,9-dioxo-1,2,6,7,8,9-hexahydropyrazino[1′,2′:1,5]pyrrolo[2,3-d]pyridazin-4-yl]-N-methylmethanesulfonamide]",effective
13,"CCN1C[C@H](C)n2c(c(O)c3c(=O)n(Cc4ccc(F)c(Cl)c4)nc(S(=O)(=O)CC)c32)C1=O [Example 166, 6(S)-2-(3-Chloro-4-fluorobenzyl)-8-ethyl-10-hydroxy-4-(ethylsulfonyl)-6-methyl-7,8-dihydropyrazino[1′,2′:1,5]pyrrolo[2,3-d]pyridazine-1,9(2H,6H)-dione]",effective
14,"CCN1C[C@H](C)n2c(c(O)c3c(=O)n(Cc4ccc(F)c(Cl)c4)ncc32)C1=O [Example 189, 6(S)-2-(3-Chloro-4-fluorobenzyl)-10-hydroxy-8-ethyl-6-methyl-7,8-dihydropyrazino[1′,2′:1,5]pyrrolo[2,3-d]pyridazine-1,9(2H,6H)-dione]",effective
15,"CC(C)N1C[C@H](C)n2c(c(O)c3c(=O)n(Cc4ccc(F)cc4)ncc32)C1=O [Example 193, 6(S)-2-(4-Fluorobenzyl)-10-hydroxy-8-isopropyl-6-methyl-7,8-dihydropyrazino[1′,2′:1,5]pyrrolo[2,3-d]pyridazine-1,9(2H,6H)-dione]",effective
16,"CCN1CC(CO)n2c(c(O)c3c(=O)n(Cc4ccc(F)cc4)ncc32)C1=O (stereo not shown) [Example 205, 2-(4-Fluorobenzyl)-10-hydroxy-8-ethyl-6-hydroxymethyl-7,8-dihydropyrazino[1′,2′:1,5]pyrrolo[2,3-d]pyridazine-1,9(2H,6H)-dione]",effective
